# Experimental data reported in patent US11613531B2, “Inhibitors of RHO associated coiled-coil containing protein kinase” (Kadmon Corporation, LLC, priority 2017, dated 2023).
# Several values for one entry are separate records, joined by “and”; a condition that tells them apart may be missing. Equal entries are not always repeated. Where two headings read alike, the source gives them in different places.
# Tests used:
# [1] = target: Recombinant ROCK2 (amino acids 1-552) (Homo sapiens (Human), UniProt O75116); test: Z′-Lyte kinase assay, ROCK2; format: biochemical; settings: for inhibition at 0.5 µM: 0.5 μM compound; for inhibition at 0.5 µM / inhibition at 1 µM: read-out: ROCK2 % inh. @ [conc]; for inhibition at 1 µM: 1 μM compound
# Summary of the method: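 Recombinant human ROCK1 (aa 1-535) or ROCK2 (aa 1-552) activity read by Z′-Lyte kinase assay. Percent inhibition at 1 μM compound was normalized to DMSO control; IC50 from 9-point 2-fold serial dilutions by nonlinear regression.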
# [2] = target: Recombinant ROCK1 (amino acids 1-535) (Homo sapiens (Human), UniProt Q13464); test: Z′-Lyte kinase assay, ROCK1; format: biochemical; settings: 0.5 μM compound; read-out: ROCK1 % inh. @ [conc]
# Experimental: Determination of Compound's ROCK Inhibitory Activity In Vitro (Z'Lyte Assay).
# Recombinant ROCK1 (amino acids 1-535) and ROCK2 (amino acids 1-552) proteins were purchased from ThermoFisher Scientific. Compound's activities were measured by Z′-lyte kinase kit (ThermoFisher Scientific) and IC50 was calculated
# In vitro activities for the compounds were measured with Z′-lyte kinase kit (ThermoFisher Scientific). The percent inhibition rate was calculated by normalizing the kinase activity value obtained with 1 μM compound treatment against DMSO control value and then applied to the formula, [1-(compound/DMSO)]×100%. IC50s were calculated using the nonlinear regression curve fit function of the GraphPad Prism software with kinase activities data measured with 9 points 2-fold serial dilution of compounds treatment. In cell pMLC IC50s were calculated with data obtained from A7R5 cell experiments. A7R5 cells were treated with 9 points 2-fold serial dilution of compounds and ppMlc (T18/S19) levels were determined to calculate cellular IC50 values of the compounds using the nonlinear regression curve fit function of the GraphPad Prism software. NIH3T3 cells stably expressing ACTA2-promoter-driven-luciferase were applied to measure ROCK compounds functional IC50s in cells. Cells were plated in 96 well plates to confluence and treated with 9 points serial dilution of compounds in combination with TGFβ1 for 24 hr. Luciferase activities were measured and compound's IC50s were calculated using the nonlinear regression curve fit function of the GraphPad Prism software.
# [3] = tested on: ppMlc (T18/S19) levels in A7R5 cells; test: A7R5 in-cell ELISA (pMLC); format: cell-based, Rat; settings: for inhibition at 1 µM / IC50 / inhibition at 10 µM: Rattus norvegicus, A7R5, A7R5 cells; for inhibition at 1 µM: 1 μM compound; for inhibition at 1 µM / inhibition at 10 µM: read-out: pMLC % inh A7R5 @ [conc]; for IC50: ppMlc (T18/S19)
# Summary of the method: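 A7R5 rat aortic smooth muscle cells seeded 24 h, then treated 90 min with a 9-point 2-fold compound dilution series. Fixed cells probed for ppMlc (T18/S19) by colorimetric in-cell ELISA; cellular IC50 from nonlinear regression curve fit.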
# [4] = 9 points 2-fold serial dilution
# Chain of Recombinant ROCK2 (amino acids 1-552) (O75116 1-552): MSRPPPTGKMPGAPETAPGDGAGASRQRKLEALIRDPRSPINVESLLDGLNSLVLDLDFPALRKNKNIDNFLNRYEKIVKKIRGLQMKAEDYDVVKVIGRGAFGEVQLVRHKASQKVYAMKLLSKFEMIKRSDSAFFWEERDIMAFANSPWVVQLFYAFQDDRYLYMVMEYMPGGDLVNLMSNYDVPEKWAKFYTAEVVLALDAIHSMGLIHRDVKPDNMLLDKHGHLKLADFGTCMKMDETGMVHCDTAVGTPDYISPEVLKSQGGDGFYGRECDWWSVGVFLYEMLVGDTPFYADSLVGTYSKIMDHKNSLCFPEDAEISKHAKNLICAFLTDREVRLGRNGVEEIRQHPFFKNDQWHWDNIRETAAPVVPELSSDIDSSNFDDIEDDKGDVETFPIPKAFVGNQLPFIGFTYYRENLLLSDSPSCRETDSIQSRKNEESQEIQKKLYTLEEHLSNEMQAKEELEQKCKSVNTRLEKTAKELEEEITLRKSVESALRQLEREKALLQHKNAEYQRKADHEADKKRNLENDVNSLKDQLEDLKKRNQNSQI
# Chain of Recombinant ROCK1 (amino acids 1-535) (Q13464 1-535): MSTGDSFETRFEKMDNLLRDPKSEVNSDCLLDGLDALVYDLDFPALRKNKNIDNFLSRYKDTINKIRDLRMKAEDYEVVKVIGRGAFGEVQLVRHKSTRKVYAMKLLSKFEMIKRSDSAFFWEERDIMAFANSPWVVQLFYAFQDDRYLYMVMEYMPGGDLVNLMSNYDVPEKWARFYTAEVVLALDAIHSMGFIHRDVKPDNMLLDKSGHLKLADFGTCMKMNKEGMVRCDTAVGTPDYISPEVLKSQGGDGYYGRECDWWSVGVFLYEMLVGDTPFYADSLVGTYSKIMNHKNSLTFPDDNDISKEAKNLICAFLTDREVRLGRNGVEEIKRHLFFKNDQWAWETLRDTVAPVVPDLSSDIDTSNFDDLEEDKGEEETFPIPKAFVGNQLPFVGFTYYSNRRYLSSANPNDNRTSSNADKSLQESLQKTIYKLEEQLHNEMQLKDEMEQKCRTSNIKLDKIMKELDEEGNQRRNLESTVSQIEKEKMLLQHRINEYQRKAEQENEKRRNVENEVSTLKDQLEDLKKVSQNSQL
Compound,inhibition at 0.5 µM [1],inhibition at 0.5 µM [2],inhibition at 1 µM [1],inhibition at 10 µM ([3]; 10 μM compound),further results
"c1cc(-c2cn[nH]c2)ccc1Nc1nc(N2C3CCC2CNC3)nc2c1CNC2 [Example 276, N-(4-(1H-pyrazol-4-yl)phenyl)-2-(3,8-diazabicyclo[3.2.1]octan-8-yl)-6,7-dihydro-5H-pyrrolo[3,4-d]pyrimidin-4-amine]",91%,88%,,,IC50 [1]: 2.3 nM
"c1cc2[nH]ncc2cc1Nc1nc(N2C3CCC2CNC3)nc2c1CNC2 [Example 275, 2-(3,8-diazabicyclo[3.2.1]octan-8-yl)-N-(1H-indazol-5-yl)-6,7-dihydro-5H-pyrrolo[3,4-d]pyrimidin-4-amine]",90%,95%,,,IC50 [1]: 1.2 nM
"c1cc(-c2cn[nH]c2)ccc1Nc1nc(N2C3CCC2CNC3)nc2c1COCC2 [Example 243, N-(4-(1H-pyrazol-4-yl)phenyl)-2-(3,8-diazabicyclo[3.2.1]octan-8-yl)-7,8-dihydro-5H-pyrano[4,3-d]pyrimidin-4-amine]",80%,67%,,,IC50 [1]: 56 nM
"CCOC(=O)[C@]12CCNCCC1CN(c1ncc(Cl)c(Nc3ccc4[nH]ncc4c3)n1)C2 (stereo partly drawn) [Example 323, Ethyl (3αR,8αR)-2-(4-((1H-indazol-5-yl)amino)-5-chloropyrimidin-2-yl)octahydropyrrolo[3,4-d]azepine-3α(1H)-carboxylate]",29%,17%,,,
"CCOC(=O)[C@]12CCNCCC1CN(c1ncc(F)c(Nc3ccc4[nH]ncc4c3)n1)C2 (stereo partly drawn) [Example 322, Ethyl (3αR,8αR)-2-(4-((1H-indazol-5-yl)amino)-5-fluoropyrimidin-2-yl)octahydropyrrolo[3,4-d]azepine-3α(1H)-carboxylate]",29%,17%,,,
"c1cc2c(Nc3ccc4[nH]ncc4c3)nc(N3C4CCC3CNC4)nc2s1 [Example 274, 2-(3,8-diazabicyclo[3.2.1]octan-8-yl)-N-(1H-indazol-5-yl)thieno[2,3-d]pyrimidin-4-amine]",99%,101%,,,IC50 [1]: 0.4 nM
"CCOOCC12CNCC1(C(F)(F)F)CN(c1ncc(F)c(Nc3ccc4[nH]ncc4c3)n1)C2 (stereo not drawn) [Example 328, N-(2-(3a-((ethylperoxy)methyl)-6a-(trifluoromethyl)hexahydropyrrolo[3,4-c]pyrrol-2(1H)-yl)-5-fluoropyrimidin-4-yl)-1H-indazol-5-amine]",7%,8%,,,
"CCOC(=O)C12CNCC1(C(F)(F)F)CN(c1ncc(Cl)c(Nc3ccc4[nH]ncc4c3)n1)C2 (stereo not drawn) [Example 338, Ethyl 2-(4-((1H-indazol-5-yl)amino)-5-chloropyrimidin-2-yl)-6a-(trifluoromethyl)hexahydropyrrolo[3,4-c]pyrrole-3a(1H)-carboxylate]",13%,3%,,,
"CCOC(=O)C1NC2CC1CN(c1ncc(F)c(Nc3ccc4[nH]ncc4c3)n1)C2 (stereo not drawn) [Example 339, Ethyl 3-(4-((1H-indazol-5-yl)amino)-5-fluoropyrimidin-2-yl)-3,6-diazabicyclo[3.2.1]octane-7-carboxylate]",75%,56%,,,IC50 [1]: 211 nM
"c1cc2[nH]ncc2cc1Nc1nc(N2C3CCC2CNC3)nc2c1COCC2 [Example 46, 2-(3,8-diazabicyclo[3.2.1]octan-8-yl)-N-(1H-indazol-5-yl)-7,8-dihydro-5H-pyrano[4,3-d]pyrimidin-4-amine]",98%,98%,,,IC50 [1]: 1 nM
"c1cc(Nc2ccc3[nH]ncc3c2)nc(N2CC3CCC2CN3)n1 (stereo not drawn) [Example 67, N-(2-(2,5-diazabicyclo[2.2.2]octan-2-yl)pyrimidin-4-yl)-1H-indazol-5-amine]",,,99.2%,,"IC50 [1, 4]: 45 nM; inhibition at 1 µM [3]: 31.4%; IC50 [3]: 1360 nM"
"COc1cnc(N2CCNC(C)CC2)nc1Nc1ccc2[nH]ncc2c1 (stereo not drawn) [Example 53, N-(5-methoxy-2-(5-methyl-1,4-diazepan-1-yl)pyrimidin-4-yl)-1H-indazol-5-amine]",,,74.5%,51.3%,IC50 [3]: 1720 nM
"Cc1cnc(N2CCNCC2C)nc1Nc1ccc2[nH]ncc2c1 (stereo not drawn) [Example 97, N-(5-methyl-2-(2-methylpiperazin-1-yl)pyrimidin-4-yl)-1H-indazol-5-amine]",,,54%,52.5%,IC50 [3]: 2340 nM
"c1ccc(C2CCN(c3nccc(Nc4ccc(-c5cn[nH]c5)cc4)n3)C2)cc1 (stereo not drawn) [Example 270, N-(4-(1H-pyrazol-4-yl)phenyl)-2-(3-phenylpyrrolidin-1-yl)pyrimidin-4-amine]",,,,,"IC50 [1]: 1430 nM; pMLC % inh A7R5 @ [conc] ([3]; A7R5 cells, 10 μM compound): −6.9% and −8.9%"
"c1cc(Nc2ccc(-c3cnco3)cc2)nc(N2CCNCC2)n1 [Example 358, N-(4-(oxazol-5-yl)phenyl)-2-(piperazin-1-yl)pyrimidin-4-amine]",,,,24.3%,IC50 [1]: > 10000 nM
"Fc1cnc(N2CCNC3(CC3)C2)nc1Nc1ccc2[nH]ncc2c1 [Example 153, N-(5-fluoro-2-(4,7-diazaspiro[2.5]octan-7-yl)pyrimidin-4-yl)-1H-indazol-5-amine]",,,,,"IC50 [1, 4]: 556 nM; inhibition at 1 µM [3]: 23.8%"
"CC1CN(c2ncc(F)c(Nc3ccc4[nH]ncc4c3)n2)CCN1 (stereo not drawn) [Example 140, N-(5-fluoro-2-(3-methylpiperazin-1-yl)pyrimidin-4-yl)-1H-indazol-5-amine]",,,88%,63.5%,IC50 [3]: 734 nM
"COc1cnc(N2CCCNC(C)C2)nc1Nc1ccc2[nH]ncc2c1 (stereo not drawn) [Example 55, N-(5-methoxy-2-(3-methyl-1,4-diazepan-1-yl)pyrimidin-4-yl)-1H-indazol-5-amine]",,,83.3%,52.2%,IC50 [3]: 998 nM
"Fc1cnc(N2CC3CC(C2)N3)nc1Nc1ccc2[nH]ncc2c1 [Example 157, N-(2-(3,6-diazabicyclo[3.1.1]heptan-3-yl)-5-fluoropyrimidin-4-yl)-1H-indazol-5-amine]",,,,,"IC50 [1, 4]: 89 nM; inhibition at 1 µM [3]: 27.2%"
"Cc1cc(Nc2ccc3[nH]ncc3c2)nc(N2CCN3CCNCC3C2)n1 (stereo not drawn) [Example 133, N-(6-methyl-2-(octahydro-2H-pyrazino[1,2-a]pyrazin-2-yl)pyrimidin-4-yl)-1H-indazol-5-amine]",,,15.2%,,inhibition at 1 µM [3]: 3.1%
"Cc1nc(N2CCNC(C(C)C)CC2)nc(Nc2ccc3[nH]ncc3c2)c1C (stereo not drawn) [Example 19, N-(2-(5-isopropyl-1,4-diazepan-1-yl)-5,6-dimethylpyrimidin-4-yl)-1H-indazol-5-amine]",,,4.6%,31.8%,
"CC1CCN(c2ncc(F)c(Nc3ccc4[nH]ncc4c3)n2)CCN1 (stereo not drawn) [Example 152, N-(5-fluoro-2-(5-methyl-1,4-diazepan-1-yl)pyrimidin-4-yl)-1H-indazol-5-amine]",,,77%,50.7%,IC50 [3]: 1030 nM
"c1cc(Nc2ccc(-c3cnn[nH]3)cc2)nc(N2CCNCC2)n1 [Example 41, N-(4-(1H-1,2,3-triazol-5-yl)phenyl)-2-(piperazin-1-yl)pyrimidin-4-amine]",,,,9.96%,"IC50 [1, 4]: > 10000 nM"
"CCC1CCN(c2ncc(C)c(Nc3ccc4[nH]ncc4c3)n2)CCN1 (stereo not drawn) [Example 96, N-(2-(5-ethyl-1,4-diazepan-1-yl)-5-methylpyrimidin-4-yl)-1H-indazol-5-amine]",,,27.2%,14.3%,
"COc1cnc(N2CCCNC(C(C)C)C2)nc1Nc1ccc2[nH]ncc2c1 (stereo not drawn) [Example 32, N-(2-(3-isopropyl-1,4-diazepan-1-yl)-5-methoxypyrimidin-4-yl)-1H-indazol-5-amine]",,,44.6%,53.7%,IC50 [3]: 3950 nM
"CCC1CN(c2ncc(C)c(Nc3ccc4[nH]ncc4c3)n2)CCCN1 (stereo not drawn) [Example 106, N-(2-(3-ethyl-1,4-diazepan-1-yl)-5-methylpyrimidin-4-yl)-1H-indazol-5-amine]",,,34.1%,,inhibition at 1 µM [3]: 12.8%
"CCC1CCN(c2nc(C)cc(Nc3ccc4[nH]ncc4c3)n2)CCN1 (stereo not drawn) [Example 109, N-(2-(5-ethyl-1,4-diazepan-1-yl)-6-methylpyrimidin-4-yl)-1H-indazol-5-amine]",,,68.4%,52.3%,IC50 [3]: 1880 nM
